{
  "source": "patent US20200290034A1",
  "about": "“COMPOSITION AND METHOD FOR REGENERATING CATION EXCHANGE RESINS” (Tygrus, LLC, priority 2019, published 2020)",
  "key": {"[1]": {"assay": "Shelf-stability of stored samples", "assay_type": "physicochemical", "conditions": "closed containers at standard temperature and 50% relative humidity", "text": "The material produced in Example I is separated into individual samples. Some are stored in closed containers at standard temperature and 50% relative humidity to determine shelf-stability. Other samples are subjected to analytical procedures to determine composition. The test samples are subjected to FFTIR spectra analysis and titrated with hydrogen coulometry. The sample material has a molarity ranging from […] strength. The material has a gravimetric range greater than 1.15; with ranges greater than 1.9 in certain instances. The composition is stable and has a 1.87 to 1.78 molar material that contains 8 to 9% of the total moles of acid protons that are not charged balanced."}, "[2]": {"assay": "Excess hydrogen ion concentration and pH after admixing with water", "conditions": "5 ml material admixed in 5 ml deionized and distilled water, standard temperature and pressure"}},
  "data": [
    {"substance": "hydrogen (1+), triaqua-μ3-oxotri sulfate (1:1) [Example I]", "values": [
      {"measurement": "shelf-stability", "setting": "[1]", "value": "stable"},
      {"measurement": "excess hydrogen ion concentration", "setting": "[2]", "value": "greater than 15 % by volume"},
      {"measurement": "pH", "setting": "[2]", "value": 1}
    ]}
  ]
}
